Experimental data published in ChEMBL document CHEMBL3112414, “Synthesis of 3-tetrazolylmethyl-4H-chromen-4-ones via Ugi-azide and biological evaluation against Entamoeba histolytica, Giardia lamblia and Trichomona vaginalis” (Bioorg Med Chem, 2014).

Tests used:
Format in all cases: functional, organism-based
[1] = system: Trichomonas vaginalis; experiment: Antiprotozoal activity against trophozoite stage of Trichomonas vaginalis GT3 assessed as growth inhibition
[2] = system: Giardia intestinalis; experiment: Antiprotozoal activity against trophozoite stage of Giardia lamblia IMSS:8909:1 assessed as growth inhibition after 48 hrs; conditions: Giardia duodenalis, IMSS:8909:1, 48 h
[3] = system: Entamoeba histolytica; experiment: Antiprotozoal activity against trophozoite stage of Entamoeba histolytica HM-1:IMSS assessed as growth inhibition after 48 hrs

Row | SMILES | IC50 [1] [µM] | IC50 [2] | IC50 [3]
1 | O=c1c(C(Nc2ccc(Cl)cc2)c2nnnn2C2CCCCC2)coc2ccccc12 (stereo not given) | 284 | 218 µM | 176 µM
2 | O=c1c(C(Nc2ccc([N+](=O)[O-])cc2)c2nnnn2C2CCCCC2)coc2ccccc12 (stereo not given) | 205 | 247 µM | 116 µM
3 | O=c1c(C(Nc2ccccc2[N+](=O)[O-])c2nnnn2C2CCCCC2)coc2ccccc12 (stereo not given) | 188 | 194 µM | 124 µM
4 | O=c1c(C(Nc2ccc(I)cc2)c2nnnn2C2CCCCC2)coc2ccccc12 (stereo not given) | 222 | 226 µM | 117 µM
5 | CC(C)(C)n1nnnc1C(Nc1ccc(I)cc1)c1coc2ccccc2c1=O (stereo not given) | 246 | 197 µM | 142 µM
6 | CC(C)(C)n1nnnc1C(Nc1ccc(Cl)cc1)c1coc2ccccc2c1=O (stereo not given) | 371 | 269 µM | 161 µM
7 | Cc1ncc([N+](=O)[O-])n1CCO [METRONIDAZOLE] |  | 1.22 µg/mL | 0.23 µg/mL
8 | O=c1c(C(Nc2ccccc2I)c2nnnn2C2CCCCC2)coc2ccccc12 (stereo not given) | 282 | 198 µM | 122 µM
9 | COc1ccc(NC(c2coc3ccccc3c2=O)c2nnnn2-c2c(C)cccc2C)cc1OC (stereo not given) | 192 | 240 µM | 111 µM
10 | O=c1c(C(Nc2ccccc2)c2nnnn2C2CCCCC2)coc2ccccc12 (stereo not given) | 374 | 286 µM | 183 µM
11 | COc1ccc(-c2coc3cc(O)ccc3c2=O)cc1 [FORMONONETIN] |  | 0.03 µg/mL | 
12 | O=c1c(C(Nc2ccccc2Br)c2nnnn2C2CCCCC2)coc2ccccc12 (stereo not given) | 195 | 253 µM | 114 µM
13 | CC(C)(C)n1nnnc1C(Nc1ccccc1)c1coc2ccccc2c1=O (stereo not given) | 432 | 316 µM | 188 µM
14 | CC(C)(C)n1nnnc1C(Nc1ccccc1I)c1coc2ccccc2c1=O (stereo not given) | 280 | 207 µM | 134 µM
15 | COc1cc(NC(c2coc3ccccc3c2=O)c2nnnn2C2CCCCC2)cc(OC)c1OC (stereo not given) | 176 | 171 µM | 87.9 µM
16 | CC(C)(C)n1nnnc1C(Nc1ccccc1Br)c1coc2ccccc2c1=O (stereo not given) | 234 | 242 µM | 125 µM
